Test results: ChEMBL document CHEMBL4699540, “Discovery and structure activity relationships of 7-benzyl triazolopyridines as stable, selective, and reversible inhibitors of myeloperoxidase” (Bioorg Med Chem, 2020); call rule not given here

Columns and labels:
[1] = Metabolic stability in mouse liver microsomes assessed as compound remaining; type: ADME, Microsome
[2] = Permeability of compound at pH 7.4 by PAMPA assay; type: ADME; conditions: read-out: permeability
[3] = Metabolic stability in human liver microsomes assessed as compound remaining; type: ADME, Microsome
Myeloperoxidase [4] = target: T1, Myeloperoxidase (Homo sapiens, UniProt P05164); experiment: Inhibition of recombinant human MPO incubated for 10 mins by amplex red dye based assay
T1 sequence (P05164 whole entry): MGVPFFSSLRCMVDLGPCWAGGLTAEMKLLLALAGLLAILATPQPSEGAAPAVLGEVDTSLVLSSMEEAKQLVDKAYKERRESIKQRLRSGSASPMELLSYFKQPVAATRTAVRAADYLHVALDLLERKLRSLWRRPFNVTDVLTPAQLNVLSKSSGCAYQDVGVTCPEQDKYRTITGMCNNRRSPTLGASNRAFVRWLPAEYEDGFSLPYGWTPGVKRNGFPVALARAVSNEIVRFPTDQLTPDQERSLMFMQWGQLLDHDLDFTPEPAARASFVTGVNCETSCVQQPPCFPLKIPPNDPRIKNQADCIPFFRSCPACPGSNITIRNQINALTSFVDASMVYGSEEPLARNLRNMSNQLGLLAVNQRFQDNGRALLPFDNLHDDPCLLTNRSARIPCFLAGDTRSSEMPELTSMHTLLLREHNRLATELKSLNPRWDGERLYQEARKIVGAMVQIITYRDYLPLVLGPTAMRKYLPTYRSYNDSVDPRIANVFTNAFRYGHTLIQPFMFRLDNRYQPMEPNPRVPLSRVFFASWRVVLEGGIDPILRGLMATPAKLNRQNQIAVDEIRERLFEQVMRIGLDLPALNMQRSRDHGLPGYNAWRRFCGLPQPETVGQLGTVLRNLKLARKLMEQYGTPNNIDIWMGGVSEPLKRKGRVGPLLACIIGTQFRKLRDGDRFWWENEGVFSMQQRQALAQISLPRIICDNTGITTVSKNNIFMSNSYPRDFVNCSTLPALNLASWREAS

Myeloperoxidase [5] = target: T1, Myeloperoxidase; experiment: Inhibition of recombinant human MPO incubated for 10 mins in presence of 240 mM NaCl and 10 uM H2O2 by aminophenyl fluorescein based assay
Cytochrome P450 3A4 = Cytochrome P450 3A4 (Homo sapiens, UniProt P08684); experiment: Inhibition of CYP3A4 (unknown origin); type: ADME
Cytochrome P450 3A4, sequence (P08684 whole entry): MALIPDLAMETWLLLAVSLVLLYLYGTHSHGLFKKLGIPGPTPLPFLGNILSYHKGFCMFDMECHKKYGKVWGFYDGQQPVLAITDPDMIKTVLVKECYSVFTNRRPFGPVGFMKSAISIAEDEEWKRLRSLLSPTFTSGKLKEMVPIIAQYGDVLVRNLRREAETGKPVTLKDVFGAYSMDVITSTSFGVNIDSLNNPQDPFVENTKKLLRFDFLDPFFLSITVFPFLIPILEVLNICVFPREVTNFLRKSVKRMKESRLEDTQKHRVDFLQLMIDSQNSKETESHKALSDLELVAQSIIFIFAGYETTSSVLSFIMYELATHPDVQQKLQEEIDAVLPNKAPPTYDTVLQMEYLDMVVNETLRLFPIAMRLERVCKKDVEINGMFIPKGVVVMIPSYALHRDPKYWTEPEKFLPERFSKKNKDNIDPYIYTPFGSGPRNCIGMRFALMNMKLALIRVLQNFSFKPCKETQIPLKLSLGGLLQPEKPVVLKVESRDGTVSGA

[6] = target: T2, Methylated-DNA--protein-cysteine methyltransferase (Homo sapiens, UniProt P16455); experiment: Inhibition of human MGMT using 06-benzylguanine as substrate incubated for 30 mins by LC/MS analysis; conditions: 0.5 h
T2 sequence (P16455 whole entry): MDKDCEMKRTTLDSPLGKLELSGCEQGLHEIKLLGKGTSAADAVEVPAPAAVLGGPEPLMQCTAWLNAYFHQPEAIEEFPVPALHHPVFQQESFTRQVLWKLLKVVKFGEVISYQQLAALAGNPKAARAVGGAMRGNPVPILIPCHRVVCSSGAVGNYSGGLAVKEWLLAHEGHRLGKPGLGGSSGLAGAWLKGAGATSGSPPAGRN

[7] = Stability of compound at pH 1 assessed as half life; type: physicochemical; conditions: buffer
[8] = Dissociation constant, pKa of the compound; type: physicochemical
Thyroid peroxidase = target: T3, Thyroid peroxidase (Homo sapiens, UniProt P07202); experiment: Inhibition of TPO (unknown origin) using 3-iodo tyrosine as substrate incubated for 10 mins
T3 sequence (P07202 whole entry): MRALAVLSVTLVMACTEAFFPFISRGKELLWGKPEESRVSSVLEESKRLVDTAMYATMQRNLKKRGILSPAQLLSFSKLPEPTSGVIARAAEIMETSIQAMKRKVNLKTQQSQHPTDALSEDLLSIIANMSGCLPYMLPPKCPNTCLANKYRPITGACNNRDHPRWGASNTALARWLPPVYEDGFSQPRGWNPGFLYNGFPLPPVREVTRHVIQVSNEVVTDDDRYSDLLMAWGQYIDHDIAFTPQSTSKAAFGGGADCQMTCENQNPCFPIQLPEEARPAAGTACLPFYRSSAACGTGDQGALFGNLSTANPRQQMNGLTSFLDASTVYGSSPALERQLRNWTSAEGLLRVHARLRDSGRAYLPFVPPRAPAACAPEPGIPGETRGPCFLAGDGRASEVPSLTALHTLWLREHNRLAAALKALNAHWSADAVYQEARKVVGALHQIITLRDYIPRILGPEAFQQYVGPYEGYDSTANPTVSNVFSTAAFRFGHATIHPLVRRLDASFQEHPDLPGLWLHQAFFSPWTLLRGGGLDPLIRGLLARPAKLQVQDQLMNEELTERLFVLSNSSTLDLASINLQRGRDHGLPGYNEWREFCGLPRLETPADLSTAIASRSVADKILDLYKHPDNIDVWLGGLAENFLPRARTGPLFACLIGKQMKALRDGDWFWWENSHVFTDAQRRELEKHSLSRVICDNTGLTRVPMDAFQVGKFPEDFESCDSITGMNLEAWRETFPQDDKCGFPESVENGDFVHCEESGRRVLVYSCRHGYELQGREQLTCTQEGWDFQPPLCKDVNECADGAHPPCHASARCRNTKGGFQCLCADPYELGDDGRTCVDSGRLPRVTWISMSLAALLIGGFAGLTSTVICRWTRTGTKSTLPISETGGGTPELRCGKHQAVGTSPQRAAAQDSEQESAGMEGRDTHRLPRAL

Row | SMILES | Stabilty [1] | Papp [2] | Stabilty [3] | IC50 (Myeloperoxidase [4]) | IC50 (Myeloperoxidase [5]) | further results
1 | Nc1cc([C@H](CCN[C@@H]2CC[C@@H](c3ccccc3)C2)c2ccccc2)c2nn[nH]c2n1 | 45% | 2.4 ×10⁻⁶ cm/s | 73% | – | – | –
2 | Nc1cc(C(CCNC23CCC(c4ccccc4)(CC2)OC3)c2ccccc2)c2nn[nH]c2n1 (centres undefined) | – | 10.4 ×10⁻⁶ cm/s | – | – | – | –
3 | Nc1cc([C@H](CCN(CCF)C23CCC(c4ccccc4)(CC2)CC3)c2ccccc2)c2nn[nH]c2n1 | – | 21.7 ×10⁻⁶ cm/s | – | – | – | –
4 | COC(=O)c1cccc(Cc2cc(N)nc3[nH]nnc23)c1 | – | – | – | 17 nM | 29 nM | –
5 | Nc1cc(Cc2cccc(-c3ccccc3)c2)c2nn[nH]c2n1 | – | – | – | 77 nM | 127 nM | –
6 | Nc1cc(Cc2cccc(C(F)(F)F)c2)c2nn[nH]c2n1 | – | – | – | 1430 nM | 683 nM | –
7 | Nc1cc([C@H](CCNCc2ccccc2C(F)(F)F)c2ccccc2)c2nn[nH]c2n1 | 3% | 23.7 ×10⁻⁶ cm/s | 2% | – | – | –
8 | Nc1cc(Cc2ccccc2F)c2nn[nH]c2n1 | – | – | – | 46 nM | 32 nM | –
9 | CN(Cc1ccccc1)c1nc(N)nc2[nH]nnc12 | – | – | – | > 40000 nM | > 40000 nM | –
10 | Nc1cc(Cc2ccc3ccccc3c2)c2nn[nH]c2n1 | – | – | – | 188 nM | 57 nM | –
11 | Nc1cc([C@H](CCCc2ccccc2)c2ccccc2)c2nn[nH]c2n1 | 1% | 125 ×10⁻⁶ cm/s | 31% | – | – | IC50 (Cytochrome P450 3A4): 1800 nM
12 | Nc1cc(Cc2ccc(Cl)cc2)c2nn[nH]c2n1 | – | – | – | 9300 nM | 1700 nM | –
13 | Nc1cc([C@H](CCN[C@@H]2CC[C@@H](c3ccccc3)c3ccccc32)c2ccccc2)c2nn[nH]c2n1 | 10% | – | 9% | – | – | –
14 | Nc1cc(OCc2ccccc2)c2nn[nH]c2n1 | – | – | – | – | – | inhibition (INH) [6]: Active; half-life [7]: > 100 h
15 | Nc1cc([C@H](CCN[C@H]2C[C@@H](c3ccccc3)c3ccccc32)c2ccccc2)c2nn[nH]c2n1 | 28% | – | 35% | – | – | –
16 | Nc1nc(Cc2ccccc2)c2nn[nH]c2n1 | – | – | – | 428 nM | 110 nM | inhibition (INH) [6]: Not Active; half-life [7]: 16 h; pKa [8]: 6.3
17 | Nc1cc([C@H](CCN[C@H]2CC[C@H](c3ccccc3)CC2)c2ccccc2)c2nn[nH]c2n1 | 79% | – | 80% | – | – | –
18 | Nc1cc([C@H](CCN[C@H]2CCc3ccccc32)c2ccccc2)c2nn[nH]c2n1 | 51% | 6.5 ×10⁻⁶ cm/s | 65% | – | – | –
19 | Nc1cc([C@H](CCCN2CCC(c3ccccc3)CC2)c2ccccc2)c2nn[nH]c2n1 | – | 1.3 ×10⁻⁶ cm/s | – | – | – | –
20 | Nc1cc([C@H](Cc2ccccc2)c2ccccc2)c2nn[nH]c2n1 | 53% | 64.8 ×10⁻⁶ cm/s | 84% | – | – | IC50 (Cytochrome P450 3A4): 3400 nM
21 | Nc1nc(CCc2ccccc2)c2nn[nH]c2n1 | – | – | – | 9840 nM | 7450 nM | –
22 | Nc1cc([C@H](CCNC23CCC(c4ccccc4)(CC2)CC3)c2ccccc2)c2nn[nH]c2n1 | 85% | 1.7 ×10⁻⁶ cm/s | 91% | – | – | –
23 | Nc1cc([C@H](CCOCc2ccccc2)c2ccccc2)c2nn[nH]c2n1 | 1% | 73 ×10⁻⁶ cm/s | 2% | – | – | IC50 (Thyroid peroxidase): 6300 nM; IC50 (Cytochrome P450 3A4): 2600 nM
24 | Nc1cc(Cc2cccc(Cl)c2)c2nn[nH]c2n1 | – | – | – | 32 nM | 16 nM | –
25 | Nc1cc([C@H](CCNCc2ccccc2)c2ccccc2)c2nn[nH]c2n1 | 85% | 4.3 ×10⁻⁶ cm/s | 88% | – | – | IC50 (Thyroid peroxidase): > 50000 nM; IC50 (Cytochrome P450 3A4): 12000 nM
26 | Nc1nc(NCc2ccccc2)c2nn[nH]c2n1 | – | – | – | > 40000 nM | > 40000 nM | pKa [8]: 7.8
27 | CN(CC[C@H](c1ccccc1)c1cc(N)nc2[nH]nnc12)C12CCC(c3ccccc3)(CC1)CC2 | – | 0.1 ×10⁻⁶ cm/s | – | – | – | –
28 | Nc1cc([C@H](CCN[C@@H]2CC[C@@H](c3ccccc3)OC2)c2ccccc2)c2nn[nH]c2n1 | – | 3.7 ×10⁻⁶ cm/s | – | – | – | –
